The record followed here is patent US20240374626A1, “METHODS OF ENHANCING MILK PRODUCTION IN LACTATING MAMMALIAN SUBJECTS” (priority 2023, published 2024).

The structures appear in SMILES notation.

One test has as its system MG alveoli. The experiment in a line: Contralateral intraductal injection: milk staining (IHC) integrated density per alveolus. The class given is in vivo, mouse. The conditions noted are these: Mk-1775 IDI at PD16.5 vs contralateral DMSO, LD5 MGs. The procedure: Nulliparous analysis was performed using adult (10-12-week-old) female mice. For timed pregnancies and lactation analysis, CD-1 pregnant adult females were obtained from Charles Rivers. Embryos were examined at the time of mammary gland harvesting to confirm pregnancy state. […] Plugged mice were considered to be PD0.5 on the day of the observed plug. All females used in this study were age matched.
Mice were anesthetized with isoflurane (VetOne, 501017) Prior to intraductal injections, hair was removed from around the nipples using Nair hair remover. Injections into the duct of the nipple were performed with 33 G needles (Hamilton, 7803-05) and a volume of 40 μl per gland. […]
Mammary gland tissue was fixed in 10% neutral buffered formalin (EMD Millipore, MR0458682) at 4° C. overnight. […] Incubation with secondary antibodies [(donkey anti-Rat 647 (Thermo-Invitrogen; A48272) and donkey anti-Rabbit 488 (Thermo-Invitrogen; A32790)] was performed for 2 h at room temperature. Sections were washed with 0.3% triton in PBS for 30 min (×3) at room temperature and mounted using flouromount-G (Southern Biotech, 0100-01). Image acquisition was performed using Zeiss Axio Imager Microscope. Macros were generated to quantify lumen milk integrated density per alveolus using Image J.

Test [1] relates to HC11 cells. The experiment in a line: Visualization of FACS-purified HC11 subpopulations sorted on DNA content (nuclei number). The class given is cell-based, mouse. The conditions noted are these: HC11, doxorubicin 50 nM, FACS-purified population. The protocol: (§1) […] Drugs were maintained through the differentiation process and added with every change of media.
Mammary gland CK8+ epithelial cells or HC11 were sorted based on DNA content using BD FACS Aria II Cell Sorter. After sorting, cells were stained in suspension using Phalloidin-iFluor 488 Reagent (Abcam, ab176753) for 30 min at room temperature in darkness. Cells were spined down onto microscopy slides (Fisher, 12-550-15) using Cytospin 2 (Shandon, 599X52) at 500 rpm for 3 min. Cells were mounted using fluoromount-G (Southern Biotech, 0100-01) and visualized using Zeiss Axio Imager Microscope.

The subject of test [2] is HC11 cells. In words: FACS DNA content analysis of HC11 cells during lactogenic differentiation. The conditions noted are these: HC11, doxorubicin 50 nM. The class given is cell-based, mouse. The procedure:
The HC11 cell line was obtained from American Type Culture Collection (ATCC) and routinely checked for mycoplasma (Mycoplasma PCR kit, ABM, G238). Undifferentiated HC11 cells were cultured in growing medium (RPMI-1640; Thermo Fisher Scientific, 72400047), supplemented with 10% FBS, 5 μg/ml insulin (Millipore-Sigma, 16634), 10 ng/ml epidermal growth factor (EGF; Preprotech, AF-100-15) and 1× AntiAnti (Thermo Fisher Scientific, 15240112) at 37° C. with 5% CO2. Cells were grown to confluency and maintained in growing medium for 2 days, until they became competent. Competent HC11 cells were primed for differentiation by culturing them in priming medium [RPMI-1640 supplemented with 5 μg/ml insulin, 1 μM dexamethasone (Millipore-Sigma, D4902-1 G) and 1× Anti-Anti] for 24 h at 37° C. with 5% CO2. To induce differentiation, primed HC11 cells were cultured in DIP Medium [RPMI-1640, supplemented with 10% FBS, 5 μg/ml insulin, 1 μM dexamethasone, 1× anti-anti and 3 μg/ml Prolactin (NHPP, oPRL-21)] at 37° C. with 5% CO2.
as §1
For DNA content analysis of the mammary gland CK8^+ epithelial population, mammary gland cells suspension was obtained as described above. Cells were fixed in ice-cold 70% EtOH at a final concentration of 10^6 cells/ml. During fixation, cells were vigorously vortexed for 1 min to avoid the formation of cell aggregates. Cells were washed twice with washing buffer [1×PBS containing 5% FBS and 0.5% tween 20 (Fisher Chemical, BP337500)] and centrifuged at 2,000 rpm for 5 min at 4° C. Cell pellet was incubated for 1 h at room temperature with anti-CK8 (Developmental Studies Hybridoma Lab, TROMA-1), anti-GFP (Thermo Fisher, A01704) or corresponding rat (Thermo-Fisher, 10700) or rabbit (Thermo-Fisher, 10500C) IgG isotype controls. Cells were washed twice and incubated for 1 h at room temperature in darkness with FITC anti-Rat (Thermo Fisher, A24544) or FITC anti-Rabbit (Thermo Fisher, A16030) and APC anti-Rat (Jackson ImmunoResearch, 712-136-153). Cells were washed twice and resuspended in propidium iodide solution [1×PBS containing 25 μg/ml of propidium iodide (Thermo Fisher, P3566) and 100 μg/ml of RNAse (Thermo Fisher, 12091021)]. For DNA content analysis on HC11, cells were washed with 1×DPBS (GIBCO, 14190-250) and harvested using 0.05% Trypsin-EDTA (GIBCO, 25300-062). Cell suspension was washed with 1×DPBS and centrifuged at 1,000 rpm for 5 min at 4° C. Cell pellet was fixed in ice-cold 70% EtOH and then vortexed vigorously to avoid cell aggregates. After fixation, cells were washed with washing buffer [1×PBS (GIBCO, 14190136) supplemented with 5% FBS] and centrifuged at 2,000 rpm for 5 min at 4° C. The pellet was resuspended in propidium iodide solution. Cell suspensions were filtered through a 70 μm cell strainer (Falcon, 08-771-2) and analyzed using a BD LSRII cytometer or a BD FACS Aria II Cell Sorter. Populations were analyzed using FlowJo.

With `C=CCn1c(=O)c2cnc(Nc3ccc(N4CCN(C)CC4)cc3)nc2n1-c1cccc(C(C)(C)O)n1` [Mk-1775], the “decrease in milk production (IHC, milk integrated density per alveolus)” value in the test on MG alveoli is reported as 21%.

With `COc1cccc2c1C(=O)c1c(O)c3c(c(O)c1C2=O)C[C@@](O)(C(=O)CO)C[C@@H]3O[C@H]1C[C@H](N)[C@H](O)[C@H](C)O1` [doxorubicin], the “nuclei number of polyploid cells generated” value in the test on HC11 cells [1] was “generated both mono- and binucleated polyploid cells”. Further, the “polyploidization (FACS DNA content)” value with HC11 cells [2] (DIP3) is “increase in polyploidization”. In the test on HC11 cells [2] (after 24 h), the “proportion of tetraploid cells (FACS DNA content)” value is given as “increases”.
